Test results published in patent publication US20110105397A1, “METHOD FOR TREATING HEART FAILURE WITH STRESSCOPIN-LIKE PEPTIDES” (priority 2009, published 2011).
Where “and” joins values, the source holds several entries; their conditions need not be identical. Equal values may be shown once.

How the values were obtained:
[1] = test system: subjects with heart failure; test: Echocardiography substudy in heart failure subjects; assay type: in vivo, human
Procedure: An echocardiography substudy was conducted to examine the impact of h-SCP (SEQ ID NO:1) on cardiodynamic parameters. Five subjects elected to participate in the echocardiography substudy. One subject received placebo and 4 subjects received h-SCP (SEQ ID NO:1) at doses ranging from 9 to 45 ng/kg/min during their last 2.5-hour infusion period when the echocardiogram was obtained. […] Because of the small number of subjects who participated in this substudy and the varied dose administered the results are not conclusionary, but mainly indicative of the effect.

[2] = Nonclinical pharmacokinetics in rats; parameters: species or system rat; details: in vivo
Procedure: (§1) A sandwich immunoassay was developed using an affinity purified goat polyclonal antibody, specific to h-SCP that was pre-coated onto a microplate with integrated electrodes. h-SCP molecules present in the sample will bind to the capture polyclonal antibody coated on the plate. After washing away any unbound substances, a sulfo-tagged mouse monoclonal anti-h-SCP antibody was added. This conjugated antibody will bind to the h-SCP molecules captured on the microplate and the quantity of analyte was determined by electrochemiluminescence. The amount of signal generated is directly proportional to the h-SCP concentration in the sample or standard. The standard curve range is 3.125-1600 pg/mL with a quantifiable range from 10-800 pg/mL. A sample volume of 25 μL (in duplicate) is required for this assay. This immunoassay is specific for human and dog stresscopin and human urocortin III (h-UCN3). […] After completion of the analysis, based on a comparison of reference standards between the ELISA and HPLC method, a correction factor of 1.57 was applied to all bioanalytical data.
The nonclinical pharmacokinetics of h-SCP (SEQ ID NO:1) and pegylated stresscopin-like peptides were studied in rats, dogs, and cynomolgus monkeys (cyno). Nonclinical pharmacokinetic studies focused on characterization of IV infusion at pharmacologically relevant dose levels, supplemented with IV and SC bolus and toxicokinetic analysis.

[3] = in vivo; details: dog, iv
Procedure: The findings described above were further examined in a study, in which h-SCP (SEQ ID NO:1) was infused over a 30-minute period at the same total doses that were administered by bolus as described above with the results presented in Table 17 and FIGS. 11A & B. As in the case of bolus dosing h-SCP (SEQ ID NO:1) elicited dose- (infusion-) dependent changes in blood pressure, left ventricular systolic and diastolic function, and heart rate. However, at the lower range of the dose- (infusion-) response curve there was a pronounced lessening in the positive chronotropic and blood pressure response with marked and significant increase in cardiac function measured as increased CO and LVEF. […] The corresponding plasma concentration of h-SCP (SEQ ID NO:1) was 4,577 pg/mL.
as §1

[4] = Human pharmacokinetics, healthy subjects, 7.5-hour continuous ascending dose IV infusion; assay type: in vivo; details: for half-life / clearance / Cmax / Tmax / AUC(0-inf): human, in vivo
Procedure: In healthy subjects following a 7.5-hour continuous ascending dose IV infusion of h-SCP (SEQ ID NO:1) noncompartmental pharmacokinetic analyses were performed to determine plasma concentrations of h-SCP (SEQ ID NO:1). Plasma h-SCP (SEQ ID NO:1) reached the steady state shortly after initiating the IV infusion (FIG. 16A). […] Within 30 minutes, plasma h-SCP (SEQ ID NO:1) was reduced to ≦20% of the h-SCP (SEQ ID NO:1) level at the end of infusion. […] However, the additional compartment's contribution to the overall exposure and accumulation of h-SCP (SEQ ID NO:1) is likely marginal as indicated by the effective half-lives.

[5] = biological target: m-CRHR2b (Mus musculus, UniProt Q60748); details: m-CRHR2b transfected CHO-K1 cells (Lewis et al., 2001); cited from earlier work
[6] = female, rat IV infusion 3 hours, F, 83.3 ng/kg/min
[7] = female, rat IV infusion 3 hours, F, 167 ng/kg/min
[8] = female, rat IV infusion 3 hours, F, 333 ng/kg/min
[9] = male, 3000 ng/kg, rat IV bolus, M, 3,000 ng/kg
[10] = male, 10000 ng/kg, rat IV bolus, M, 10,000 ng/kg
[11] = male, 300000 ng/kg, rat IV bolus, M, 300,000 ng/kg
[12] = male, rat IV infusion 3 hours, M, 83.3 ng/kg/min
[13] = male, rat IV infusion 3 hours, M, 167 ng/kg/min
[14] = male, rat IV infusion 3 hours, M, 333 ng/kg/min
[15] = healthy subjects, infusion rate 9/18/36 ng/kg/min, mean, N = 5
[16] = healthy subjects, infusion rate 18/54/72 ng/kg/min, mean, N = 3
[17] = healthy subjects, infusion rate 36/72/144 ng/kg/min, N = 1
[18] = healthy subjects, infusion rate 54/72/108 ng/kg/min, mean, N = 2

Sequence of m-CRHR2b (Q60748 1-431 isoform Q60748-2): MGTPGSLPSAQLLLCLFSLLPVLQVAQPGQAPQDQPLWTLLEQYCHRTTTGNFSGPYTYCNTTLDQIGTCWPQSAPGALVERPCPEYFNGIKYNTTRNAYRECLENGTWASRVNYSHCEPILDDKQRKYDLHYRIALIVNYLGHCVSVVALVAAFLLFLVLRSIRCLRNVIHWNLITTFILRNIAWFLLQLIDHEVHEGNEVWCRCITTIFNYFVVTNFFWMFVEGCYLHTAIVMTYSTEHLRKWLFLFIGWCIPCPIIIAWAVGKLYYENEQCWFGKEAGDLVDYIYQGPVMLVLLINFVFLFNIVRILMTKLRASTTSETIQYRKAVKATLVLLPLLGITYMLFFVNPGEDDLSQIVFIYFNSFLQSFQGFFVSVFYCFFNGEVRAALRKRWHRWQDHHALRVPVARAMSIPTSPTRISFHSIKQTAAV

Compound: H-TKFTLSLDVPTNIMNLLFNIAKAKNLRAQAAANAHLMAQI-NH2 [SEQ ID NO: 1, TKFTLSLDVPTNIMNLLFNIAKAKNLRAQAAANAHLMAQI-NH2]
- ejection fraction after infusion ([1]; one subject, 9 ng/kg/min, from 20%): 24.5%
- ejection fraction after infusion ([1]; one subject, 36 ng/kg/min, from 25.0%): 30.3%
- ejection fraction after infusion ([1]; two subjects, 45 ng/kg/min, from 36.0% and from 28.0%, listed as h-SCP): 34.7% and 26.1%
- AUC(0-inf) [2, 6]: 1.47 ng·h/mL
- Cmax [2, 6]: 0.906 ng/mL
- clearance ([2]; female, rat IV infusion 3 hours, F, 83.3 ng/kg/min, read-out: CL): 107 mL/min/kg
- AUC(0-inf) [2, 7]: 1.15 ng·h/mL
- Cmax [2, 7]: 0.683 ng/mL
- clearance ([2]; female, rat IV infusion 3 hours, F, 167 ng/kg/min, read-out: CL): 271 mL/min/kg
- AUC(0-inf) [2, 8]: 4.45 ng·h/mL
- Cmax [2, 8]: 2.67 ng/mL
- clearance ([2]; female, rat IV infusion 3 hours, F, 333 ng/kg/min, read-out: CL): 130 mL/min/kg
- half-life ([2]; female, rat, iv, t1/2 alpha): 0.0317 h
- half-life ([2]; female, rat, iv, t1/2 terminal): 0.97 h
- AUC(0-inf) [2, 9]: 0.522 ng·h/mL
- Cmax [2, 9]: 4.8 ng/mL
- clearance ([2]; male, 3000 ng/kg, rat IV bolus, M, 3,000 ng/kg, read-out: CL): 109 mL/min/kg
- AUC(0-inf) [2, 10]: 1.5 ng·h/mL
- Cmax [2, 10]: 13.6 ng/mL
- clearance ([2]; male, 10000 ng/kg, rat IV bolus, M, 10,000 ng/kg, read-out: CL): 116 mL/min/kg
- Cmax ([2]; male, 50000 ng/kg, rat IV bolus, M, 50,000 ng/kg): 224 ng/mL
- clearance ([2]; male, 50000 ng/kg, rat IV bolus, M, 50,000 ng/kg, read-out: CL): 41.8 mL/min/kg
- AUC(0-inf) [2, 11]: 99.7 ng·h/mL
- Cmax [2, 11]: 780 ng/mL
- clearance ([2]; male, 300000 ng/kg, rat IV bolus, M, 300,000 ng/kg, read-out: CL): 50.1 mL/min/kg
- AUC(0-inf) [2, 12]: 1.24 ng·h/mL
- Cmax [2, 12]: 0.752 ng/mL
- clearance ([2]; male, rat IV infusion 3 hours, M, 83.3 ng/kg/min, read-out: CL): 116 mL/min/kg
- AUC(0-inf) [2, 13]: 2.43 ng·h/mL
- Cmax [2, 13]: 1.53 ng/mL
- clearance ([2]; male, rat IV infusion 3 hours, M, 167 ng/kg/min, read-out: CL): 109 mL/min/kg
- AUC(0-inf) [2, 14]: 4.85 ng·h/mL
- Cmax [2, 14]: 2.86 ng/mL
- clearance ([2]; male, rat IV infusion 3 hours, M, 333 ng/kg/min, read-out: CL): 118 mL/min/kg
- half-life ([2]; rat, alpha-phase half-life (t1/2 alpha)): < 0.0833 h
- time to apparent steady-state plasma concentration after initiation of infusion ([2]; rat, iv): ≤ 2 h
- clearance ([2]; rat, rats, IV bolus, read-out: clearance values): 42 to 116 mL/min/kg
- level at 0.5 h ([3]; 22 ng/kg/min): 0.62 ng/mL
- level at time molar at 0.5 h ([3]; 22 ng/kg/min): 0.142 nM
- level at 0.5 h ([3]; 43 ng/kg/min): 4.58 ng/mL
- level at time molar at 0.5 h ([3]; 43 ng/kg/min): 1.05 nM
- level at 0.5 h ([3]; 86 ng/kg/min): 5.14 ng/mL
- level at time molar at 0.5 h ([3]; 86 ng/kg/min): 1.18 nM
- level at 0.5 h ([3]; 146 ng/kg/min): 23.6 ng/mL
- level at time molar at 0.5 h ([3]; 146 ng/kg/min): 5.41 nM
- level at 0.5 h ([3]; 437 ng/kg/min): 67.1 ng/mL
- level at time molar at 0.5 h ([3]; 437 ng/kg/min): 15.4 nM
- human equivalent dose to achieve Cpss of 620 pg/mL ([4]; dose = CL × Cpss / weight, 70 kg): 4.4 ng/kg/min
- expected steady-state plasma concentration (Cpss) ([4]; human starting dose of 0.1 ng/kg/min, pharmacokinetic-based approach): 8.6 pg/mL
- half-life ([4]; healthy subjects, across dose groups, read-out: Mean effective half-life): 1.54 to 14.2 h
- clearance ([4]; healthy subjects, across dose groups, read-out: Mean systemic clearance): 4.5 to 7 mL/min/kg
- half-life ([4]; healthy subjects, across dose groups, read-out: Mean terminal half-life): 2.13 to 28.5 h
- Cmax ([4]; healthy subjects, infusion rate 0.1/0.3/1 ng/kg/min, mean, N = 5): 0.248 ng/mL
- Tmax ([4]; healthy subjects, infusion rate 0.1/0.3/1 ng/kg/min, median, N = 5): 7.47 h
- AUC(0-inf) ([4]; healthy subjects, infusion rate 1/3/9 ng/kg/min, mean, N = 4): 7.41 ng·h/mL
- clearance ([4]; healthy subjects, infusion rate 1/3/9 ng/kg/min, mean, N = 4, read-out: CL (converted)): 4.67 mL/min/kg
- Tmax ([4]; healthy subjects, infusion rate 1/3/9 ng/kg/min, median, N = 5): 7 h
- AUC(0-inf) [4, 15]: 28.9 ng·h/mL
- Cmax [4, 15]: 7.26 ng/mL
- clearance ([4]; healthy subjects, infusion rate 9/18/36 ng/kg/min, mean, N = 5, read-out: CL (converted)): 5.5 mL/min/kg
- Tmax ([4]; healthy subjects, infusion rate 9/18/36 ng/kg/min, median, N = 5): 7 h
- AUC(0-inf) ([4]; healthy subjects, infusion rate 18/36/72 ng/kg/min, N = 1): 68.7 ng·h/mL
- clearance ([4]; healthy subjects, infusion rate 18/36/72 ng/kg/min, N = 1, read-out: CL (converted)): 4.67 mL/min/kg
- Cmax ([4]; healthy subjects, infusion rate 18/36/72 ng/kg/min, mean, N = 2): 14.1 ng/mL
- Tmax ([4]; healthy subjects, infusion rate 18/36/72 ng/kg/min, median, N = 2): 6.46 h
- AUC(0-inf) [4, 16]: 55.9 ng·h/mL
- Cmax [4, 16]: 9.01 ng/mL
- clearance ([4]; healthy subjects, infusion rate 18/54/72 ng/kg/min, mean, N = 3, read-out: CL (converted)): 6.83 mL/min/kg
- Tmax ([4]; healthy subjects, infusion rate 18/54/72 ng/kg/min, median, N = 3): 5.5 h
- AUC(0-inf) [4, 17]: 138 ng·h/mL
- Cmax [4, 17]: 29.1 ng/mL
- Tmax [4, 17]: 7.42 h
- clearance ([4]; healthy subjects, infusion rate 36/72/144 ng/kg/min, N = 1, read-out: CL (converted)): 4.5 mL/min/kg
- AUC(0-inf) [4, 18]: 95.5 ng·h/mL
- Cmax [4, 18]: 14.6 ng/mL
- clearance ([4]; healthy subjects, infusion rate 54/72/108 ng/kg/min, mean, N = 2, read-out: CL (converted)): 7 mL/min/kg
- Tmax ([4]; healthy subjects, infusion rate 54/72/108 ng/kg/min, median, N = 2): 6.99 h
- clearance ([4]; iv, healthy humans, intravenous infusion, for a 70-kg person, read-out: clearance (CL) (converted)): ~500 mL/min

Compound: CC[C@H](C)[C@H](NC(=O)[C@H](CO)NC(=O)[C@H](CC(C)C)NC(=O)[C@@H]1CCCN1C(=O)[C@@H]1CCCN1C(=O)[C@H](CC(=O)O)NC(=O)[C@@H](N)CC(=O)O)C(=O)N[C@@H](CC(=O)O)C(=O)N[C@@H](CC(C)C)C(=O)N[C@H](C(=O)N[C@@H](Cc1ccccc1)C(=O)N[C@@H](Cc1c[nH]cn1)C(=O)N[C@@H](CC(C)C)C(=O)N[C@@H](CC(C)C)C(=O)N[C@@H](CCCNC(=N)N)C(=O)N[C@H](C(=O)N[C@@H](CC(C)C)C(=O)N[C@@H](CC(C)C)C(=O)N[C@@H](CCC(=O)O)C(=O)N[C@@H](CC(C)C)C(=O)N[C@@H](C)C(=O)N[C@@H](CCCNC(=N)N)C(=O)N[C@H](C(=O)N[C@@H](CCC(N)=O)C(=O)N[C@@H](CO)C(=O)N[C@@H](CCC(N)=O)C(=O)N[C@@H](CCCNC(=N)N)C(=O)N[C@@H](CCC(=O)O)C(=O)N[C@@H](CCCNC(=N)N)C(=O)N[C@@H](C)C(=O)N[C@@H](CCC(=O)O)C(=O)N[C@@H](CCC(N)=O)C(=O)N[C@@H](CC(N)=O)C(=O)N[C@@H](CCCNC(=N)N)C(=O)N[C@H](C(=O)N[C@H](C(=O)N[C@@H](Cc1ccccc1)C(=O)N[C@@H](CC(=O)O)C(=O)N[C@@H](CO)C(=O)N[C@H](C(N)=O)C(C)C)[C@@H](C)CC)[C@@H](C)CC)[C@@H](C)O)[C@@H](C)O)[C@@H](C)O [SEQ ID NO: 114, DDPPLSIDLTFHLLRTLLELARTQSQRERAEQNRIIFDSV-NH2]
- Published pA50 [5]: 10.06^2
